Among the test systems are CCRF-CEM leukemia; T-47D breast; SN12C renal; CAKI-1 renal; HL-60(TB) leukemia; OVCAR-8 ovarian; MDA-MB-435; NCI-H460 lung; SF-539 CNS; SK-MEL-5 melanoma.
What all share (test): NCI-60 cell line screen, 48 h

Molecules are shown by their SMILES.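 Assay format: 96-well plates, 48-hour exposure. GI50: concentration for 50% inhibition of growth. TGI denotes the concentration required for complete inhibition of growth.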

Take `COc1ccc(C(C#N)=C2C=CC(=NO)C=C2)cc1`: the GI50 was 2.76 µM with CCRF-CEM leukemia; 1.76 µM with T-47D breast; 12.5 µM with SN12C renal; 4.88 µM in the assay with CAKI-1 renal; 3.08 µM with HL-60(TB) leukemia; 10.2 µM with OVCAR-8 ovarian. The GI50 was 2.23 µM in the assay with MDA-MB-435, 3.17 µM with NCI-H460 lung, 3.79 µM in the assay with SF-539 CNS and 4.34 µM in the assay on SK-MEL-5 melanoma. The TGI in the assay on CCRF-CEM leukemia is over 100 µM; in the assay with T-47D breast it was 5.36 µM; in the assay on SN12C renal it was 27.6 µM; in the assay with CAKI-1 renal, 15.1 µM; with HL-60(TB) leukemia, 57.5 µM; in the assay on OVCAR-8 ovarian it was 22.9 µM. Further, the TGI in the assay on MDA-MB-435 is 5.8 µM; in the assay with NCI-H460 lung, 12 µM; with SF-539 CNS it was 13.8 µM; with SK-MEL-5 melanoma it was 17.2 µM.

`Cc1c(N)nc([C@H](CC(N)=O)NC[C@H](N)C(N)=O)nc1C(=O)N[C@H](C(=O)N[C@H](C)[C@@H](O)CC(=O)N[C@H](C(=O)NC(O[C@@H]1O[C@@H](C)[C@@H](N)[C@@H](O)[C@H]1O)C(O)c1nc(-c2nc(C(=O)NCCCCN)cs2)cs1)[C@@H](C)O)[C@@H](O[C@@H]1O[C@@H](CO)[C@@H](O)[C@H](O)[C@@H]1O[C@H]1O[C@H](CO)[C@@H](O)[C@H](OC(N)=O)[C@@H]1O)c1c[nH]cn1` (some centres undefined): the TGI with CCRF-CEM leukemia, in the assay on T-47D breast, in the assay with SN12C renal, in the assay on CAKI-1 renal, in the assay on HL-60(TB) leukemia and with OVCAR-8 ovarian was over 50 µM throughout. Further, the TGI in the assay with MDA-MB-435, in the assay on NCI-H460 lung, with SF-539 CNS and with SK-MEL-5 melanoma was over 50 µM throughout.

In the case of `O=P(O)(O)OCC1OC(n2cnc3c(NCc4ccco4)ncnc32)C(O)C1O` (centres undefined), the GI50 is 0.315 µM with CCRF-CEM leukemia; 3.24 µM in the assay on T-47D breast; 0.989 µM in the assay on SN12C renal; 0.596 µM with CAKI-1 renal; 0.231 µM with HL-60(TB) leukemia; 0.861 µM in the assay with OVCAR-8 ovarian. In addition, the GI50 in the assay on MDA-MB-435 was 2.36 µM; in the assay with NCI-H460 lung it was 3.04 µM; in the assay with SF-539 CNS, 2.7 µM; in the assay with SK-MEL-5 melanoma, 3.89 µM. The TGI with CCRF-CEM leukemia was 1.14 µM; in the assay with T-47D breast, 17.3 µM; in the assay with SN12C renal it was over 37.2 µM; in the assay with CAKI-1 renal it was 3.01 µM; in the assay with HL-60(TB) leukemia, 0.601 µM; in the assay on OVCAR-8 ovarian, 6.9 µM. Moreover, the TGI was over 25.7 µM with MDA-MB-435, 21.4 µM in the assay on NCI-H460 lung, 12.5 µM with SF-539 CNS and over 37.4 µM in the assay with SK-MEL-5 melanoma.

In the case of `O=C1Nc2ccccc2/C1=C\c1cccc(/C=C2/C(=O)Nc3ccccc32)n1`, the GI50 in the assay with CCRF-CEM leukemia is 0.356 µM; in the assay with T-47D breast, 1.13 µM; in the assay on SN12C renal, 0.357 µM; in the assay with CAKI-1 renal it was 0.338 µM; in the assay with HL-60(TB) leukemia, 0.452 µM; in the assay with OVCAR-8 ovarian it was 0.3 µM. In addition, the GI50 with MDA-MB-435 was 0.355 µM; in the assay on NCI-H460 lung, 0.669 µM; with SF-539 CNS, 0.966 µM; with SK-MEL-5 melanoma it was 0.242 µM. The TGI with CCRF-CEM leukemia was over 100 µM; with T-47D breast, 3.4 µM; in the assay with SN12C renal, 1.36 µM; with CAKI-1 renal, 1.27 µM; with OVCAR-8 ovarian it was 1.13 µM; with MDA-MB-435, 1.81 µM. Besides, the TGI was determined as 1.85 µM in the assay with NCI-H460 lung, 2.23 µM with SF-539 CNS and 0.722 µM in the assay with SK-MEL-5 melanoma.

`Nc1ncnc2c1c(-c1ccc(Oc3ccccc3)cc1)nn2C[C@H]1SSC[C@@H]1O`: the GI50 is 0.2 µM in the assay on CCRF-CEM leukemia; 0.685 µM in the assay with T-47D breast; 1.36 µM with SN12C renal; 1.62 µM in the assay with CAKI-1 renal; 1.52 µM in the assay on HL-60(TB) leukemia; 0.523 µM in the assay on OVCAR-8 ovarian. Besides, the GI50 in the assay with MDA-MB-435 was 0.162 µM; in the assay with NCI-H460 lung, 0.0445 µM; in the assay on SF-539 CNS it was 1.41 µM; with SK-MEL-5 melanoma, 0.545 µM. Moreover, the TGI in the assay on CCRF-CEM leukemia came to 6.28 µM; in the assay on T-47D breast, 3.63 µM; in the assay with SN12C renal it was 13.2 µM; with CAKI-1 renal, 12.7 µM; in the assay with HL-60(TB) leukemia, 4.84 µM; in the assay on OVCAR-8 ovarian, 15.9 µM. Besides, the TGI in the assay on MDA-MB-435 was 0.324 µM; with NCI-H460 lung, 0.206 µM; in the assay on SF-539 CNS, 12 µM; in the assay with SK-MEL-5 melanoma, 1.79 µM.

Turning to `COC(NC(N)=O)C(=O)O` (centres undefined), the TGI with CCRF-CEM leukemia, with T-47D breast, with SN12C renal, in the assay with CAKI-1 renal, with HL-60(TB) leukemia and in the assay with OVCAR-8 ovarian was over 100 µM throughout. Moreover, the TGI in the assay on MDA-MB-435, in the assay with NCI-H460 lung, in the assay with SF-539 CNS and with SK-MEL-5 melanoma was over 100 µM in each case.

For the molecule `O=C(O)CNc1ccc(Cl)c(Cl)c1`, the TGI in the assay on CCRF-CEM leukemia is 84.8 µM; in the assay with T-47D breast, over 100 µM; in the assay on SN12C renal, 94.3 µM; with CAKI-1 renal, 50.3 µM; in the assay on HL-60(TB) leukemia, 78.5 µM; with OVCAR-8 ovarian, 85.4 µM. The TGI is 79.2 µM in the assay on MDA-MB-435, 69.8 µM in the assay with NCI-H460 lung, over 100 µM with SF-539 CNS and 87.9 µM with SK-MEL-5 melanoma.

The record behind these values is PubChem BioAssay (NCI).
